Blank lines part the entries; values can stand above or below the compound they belong to.
How the values were obtained:
human HCN4 currents = molecular target: T1, human HCN4 currents (Homo sapiens, UniProt Q9Y3Q4); experiment: Whole-cell patch-clamp, HCN4 steady state currents in transiently transfected CHO cells; type: cell-based; settings: for IC50: CHO cells transiently expressing HCN4, steady state current at -120 mV, n=3, read-out: IC50 (inhibition of HCN4 currents); for inhibition of the HCN4 current (result in words): tested first at 10 µM
T1 construct: CHO cells transiently expressing the HCN4 channel; expressed in transfected cells; host or cells: CHO (ATCC CCL-61), transiently transfected
T1 sequence (Q9Y3Q4 1-1203): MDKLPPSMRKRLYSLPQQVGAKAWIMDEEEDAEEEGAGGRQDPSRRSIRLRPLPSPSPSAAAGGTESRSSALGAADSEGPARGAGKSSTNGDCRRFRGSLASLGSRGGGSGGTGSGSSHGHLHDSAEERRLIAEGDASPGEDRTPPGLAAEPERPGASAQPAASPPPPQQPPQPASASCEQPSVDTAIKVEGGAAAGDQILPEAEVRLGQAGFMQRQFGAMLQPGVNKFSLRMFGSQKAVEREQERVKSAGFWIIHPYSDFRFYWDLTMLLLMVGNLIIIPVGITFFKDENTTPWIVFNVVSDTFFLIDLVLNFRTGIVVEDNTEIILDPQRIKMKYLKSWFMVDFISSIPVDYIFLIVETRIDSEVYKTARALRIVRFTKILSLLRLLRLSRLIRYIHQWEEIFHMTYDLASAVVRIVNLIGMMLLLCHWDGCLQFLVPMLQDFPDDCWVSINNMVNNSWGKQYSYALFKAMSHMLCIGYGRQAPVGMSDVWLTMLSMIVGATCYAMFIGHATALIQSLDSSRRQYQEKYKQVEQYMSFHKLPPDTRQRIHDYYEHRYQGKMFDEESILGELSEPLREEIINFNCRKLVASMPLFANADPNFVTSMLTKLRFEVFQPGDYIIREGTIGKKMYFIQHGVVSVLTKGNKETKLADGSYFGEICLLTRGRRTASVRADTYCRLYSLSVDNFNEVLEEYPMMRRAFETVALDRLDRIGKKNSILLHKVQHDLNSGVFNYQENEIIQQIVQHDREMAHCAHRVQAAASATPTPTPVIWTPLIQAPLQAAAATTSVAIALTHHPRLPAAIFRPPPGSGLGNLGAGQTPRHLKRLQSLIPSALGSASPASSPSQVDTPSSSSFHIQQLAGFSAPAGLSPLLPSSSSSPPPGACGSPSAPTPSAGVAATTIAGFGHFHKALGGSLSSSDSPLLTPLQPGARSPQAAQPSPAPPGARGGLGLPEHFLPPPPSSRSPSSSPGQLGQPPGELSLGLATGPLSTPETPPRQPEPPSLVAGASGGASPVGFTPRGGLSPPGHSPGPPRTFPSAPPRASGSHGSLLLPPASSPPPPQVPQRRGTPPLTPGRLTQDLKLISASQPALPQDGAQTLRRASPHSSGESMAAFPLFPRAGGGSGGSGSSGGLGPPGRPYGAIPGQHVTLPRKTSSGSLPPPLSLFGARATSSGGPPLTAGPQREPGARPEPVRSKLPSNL
From the text: The following six compounds in accordance with the invention: • Compound A: [drawing 81] i.e. 4-[5-[3-Chloro-5-(trifluoromethoxy) phenyl]-1-(pyridin-3-yl)-1H-pyrazol-3-yl]-5,6-dihydro-7H-pyrrolo[3,4-d]pyrimidin-7-one, • Compound B: [drawing 82] i.e. 4-[5-[3-Chloro-5-(trifluoromethoxy) phenyl]-1-(pyridin-3-yl)-1H-pyrazol-3-yl]-2,3-dihydro-1H-pyrrolo[3,4-c] pyridin-1-one, • Compound C: [drawing 83] i.e. 4-[5-[3-Chloro-5-(trifluoromethoxy) phenyl]-1-(pyridin-3-yl)-1H-pyrazol-3-yl]-5,6-dihydro-2-methyl-7H-pyrrolo[3, 4-d] pyrimidin-7-one, • Compound D: [drawing 84] i.e. 3-Amino-4-[5-[3-chloro-5-(trifluoromethoxy) phenyl]-1-(pyridin-3-yl)-1H-pyrazol-3-yl-carbonyl]-1,5-dihydro-2H-pyrrol-2-one, • Compound E: [drawing 85] i.e. 1-[[5-[3-Chloro-5-(trifluoromethoxy) phenyl]-1-(pyridin-3-yl)-1H-pyrazol-3-yl]carbonyl]-imidazolidin-4-one, • Compound F: [drawing 86] i.e. 4-[5-[3-Chloro-5-(trifluoromethoxy) phenyl]-1-(3-cyano-4-fluoro-phenyl)-1H-pyrazol-3-yl]-5,6-dihydro-7H-pyrrolo[3,4-d]pyrimidin-7-one, were tested on their effects on human HCN4 currents recorded from transiently transfected CHO cells, in direct comparison to the reference compounds described below: • Ivabradine: [drawing 87] i.e. ((S)-3-{3-[([3,4-Dimethoxy-bicyclo [4.2.0]octa-1,3,5-trien-7-yl]methyl)methylamino]propyl}-1,3,4,5-tetrahydro-7,8-dimethoxy-2H-3-benzazepin-2-on), • Compound X: [drawing 88] i.e. 1-[[1-(3-Chloro-4-fluorophenyl)-5-(3-chloro-5-fluorophenyl)-1 H-pyrazol-3-yl]carbonyl]-imidazolidin-4-one, • Compound Y: [drawing 89] i.e. N-(2-Amino-2-oxoethyl)-1-(3-chloro-4-fluorophenyl)-5-(3-chloro-5-fluorophenyl)-1H-pyrazole-3-carboxamide.
The pyrazole compounds X and Y as depicted above, and having structural similarities to the compounds of general formula (I) of the invention, were also tested to investigate whether the pure If current inhibitory effect of the compounds of the invention also extend to structurally closely related compounds.
Dependent on their solubility in the assay buffer, the compounds were tested first at one concentration of 10 µM (compound A, compound Y, compound X, compound B, compound E, compound F and ivabradine) or 1 µM for (compound C and D). If the current blocking of HCN4 at this concentration was higher than 50% the compounds were tested again at five concentrations of a half-logarithmic dilution series starting with either 10 µM or 1 µM as mentioned above (meaning 0.1 µM, 0.3 µM, 1 µM, 3 µM, and 10 µM or 0.01 µM, 0.03 µM 0.1 µM, 0.3 µM and 1 µM).
Test system: CHO cells transiently expressing the HCN4 channel; NCBI Reference Sequence: NP005468.1 (HCN4 channel); Source CHO: ATCC, CCL-61 LGC Standards GmbH, Wesel, Germany were used.
In 35 mm culture dishes CHO cells were seeded at a density allowing single cells to be recorded on the dish holder of the microscope and continuously perfused (at approximately 1 mL/min) with the bath solution described above. All solutions applied to cells including the pipette solution were maintained at room temperature (19 °C - 30 °C). After formation of a Gigaohm seal between the patch electrodes and individual cells (pipette resistance range: 2.0 MΩ - 7.0 MΩ; seal resistance range: > 1 GΩ) the cell membrane across the pipette tip was ruptured to assure electrical access to the cell interior (whole-cell patch-configuration). As soon as a stable seal was established, steady state currents were measured upon the hyperpolarization to -120 mV (2000 ms) from a holding potential of -40 mV. This voltage protocol (as shown in the scheme below) did run 5 times for control conditions and at least ten times for each test concentration. Pulse intervals were 20 s (0.05 Hz). If current amplitude was judged to be too low for measurement, another cell was recorded.
Once control recordings have been accomplished, cells were continuously perfused with bath solution containing the tested compounds as detailed above, 0.1 % DMSO or 100 µM ZD7288. […]

HCN4 = molecular target: T2, HCN4 (Homo sapiens, UniProt Q9Y3Q4); settings: literature value, Stieber et al. (2006) Mol Pharmacol 69, 1328-1337; read-out: IC50 mean (block of HCN4 channels); cited from earlier work
T2 sequence (Q9Y3Q4 1-1203): T1 sequence (Q9Y3Q4 1-1203)

in vivo = settings: dog, po, 30 mg/kg
Protocol: (§1) A single oral dose of 30 or 100 mg/kg was applied to dogs. Pharmacokinetic parameters were assessed and compared.
Male and female Beagle dogs.
(§2) Plasma concentrations were obtained by LC-MS/MS measurements.

[1] = Pharmacokinetics after single oral administration of formulations to dogs; settings: 30 mg/kg single oral dose
Protocol: as §1
Male and female Beagle dogs.
as §2

SMILES: O=C1NCc2c1ccnc2-c1cc(-c2cc(Cl)cc(OC(F)(F)F)c2)n(-c2cccnc2)n1 [Compound B, 4-[5-[3-Chloro-5-(trifluoromethoxy)phenyl]-1-(pyridin-3-yl)-1H-pyrazol-3-yl]-2,3-dihydro-1H-pyrrolo[3,4-c] pyridin-1-one]
- block of HCN4 currents at a single concentration (human HCN4 currents; 0.1 µM): almost completely
- IC50 (human HCN4 currents): 30 to 580 nM

SMILES: O=C1CN(C(=O)c2cc(-c3cc(F)cc(Cl)c3)n(-c3ccc(F)c(Cl)c3)n2)CN1 [Compound X, 1-[[1-(3-Chloro-4-fluorophenyl)-5-(3-chloro-5-fluorophenyl)-1 H-pyrazol-3-yl]carbonyl]-imidazolidin-4-one, reference compound]
- inhibition of the HCN4 current (result in words) (human HCN4 currents): not identified as inhibitors of the HCN4 current

SMILES: NC(=O)CNC(=O)c1cc(-c2cc(F)cc(Cl)c2)n(-c2ccc(F)c(Cl)c2)n1 [Compound Y, N-(2-Amino-2-oxoethyl)-1-(3-chloro-4-fluorophenyl)-5-(3-chloro-5-fluorophenyl)-1H-pyrazole-3-carboxamide, reference compound]
- inhibition of the HCN4 current (result in words) (human HCN4 currents): not identified as inhibitors of the HCN4 current

SMILES: O=C1NCc2c1ncnc2-c1cc(-c2cc(Cl)cc(OC(F)(F)F)c2)n(-c2cccnc2)n1 [ethane sulfonate]
- AUC(0-inf) (in vivo): 218 µg·h/mL
- vomiting [1]: two to three out of four animals

Now from value to compound, other results behind:

- IC50 (human HCN4 currents): 30 to 580 nM
SMILES: Cc1nc2c(c(-c3cc(-c4cc(Cl)cc(OC(F)(F)F)c4)n(-c4cccnc4)n3)n1)CNC2=O [Compound C, 4-[5-[3-Chloro-5-(trifluoromethoxy)phenyl]-1-(pyridin-3-yl)-1H-pyrazol-3-yl]-5,6-dihydro-2-methyl-7H-pyrrolo[3,4-d] pyrimidin-7-one]

- IC50 (human HCN4 currents): 30 to 580 nM
SMILES: NC1=C(C(=O)c2cc(-c3cc(Cl)cc(OC(F)(F)F)c3)n(-c3cccnc3)n2)CNC1=O [Compound D, 3-Amino-4-[5-[3-chloro-5-(trifluoromethoxy)phenyl]-1-(pyridin-3-yl)-1H-pyrazol-3-yl-carbonyl]-1,5-dihydro-2H-pyrrol-2-one]

- IC50 (human HCN4 currents): 30 to 580 nM
SMILES: O=C1CN(C(=O)c2cc(-c3cc(Cl)cc(OC(F)(F)F)c3)n(-c3cccnc3)n2)CN1 [Compound E, 1-[[5-[3-Chloro-5-(trifluoromethoxy)phenyl]-1-(pyridin-3-yl)-1H-pyrazol-3-yl]carbonyl]-imidazolidin-4-one]

- IC50 (human HCN4 currents): 30 to 580 nM
SMILES: N#Cc1cc(-n2nc(-c3ncnc4c3CNC4=O)cc2-c2cc(Cl)cc(OC(F)(F)F)c2)ccc1F [Compound F, 4-[5-[3-Chloro-5-(trifluoromethoxy)phenyl]-1-(3-cyano-4-fluoro-phenyl)-1H-pyrazol-3-yl]-5,6-dihydro-7H-pyrrolo[3,4-d]pyrimidin-7-one]

- IC50 (human HCN4 currents): 4460 nM
SMILES: COc1cc2c(cc1OC)CC(=O)N(CCCN(C)C[C@H]1Cc3cc(OC)c(OC)cc31)CC2 [Ivabradine, (S)-3-{3-[([3,4-Dimethoxy-bicyclo [4.2.0]octa-1,3,5-trien-7-yl]methyl)methylamino]propyl}-1,3,4,5-tetrahydro-7,8-dimethoxy-2H-3-benzazepin-2-on, reference compound]
- IC50 (HCN4): ~2150 nM

- relative steady state current (HCN4) (human HCN4 currents; 100 µM, mean ± SEM of n=3 cells): 12.89 ± 1.19%
SMILES: CCN(c1ccccc1)c1cc(NC)[n+](C)c(C)n1 [ZD7288, reference compound]

Source: patent EP3263567A1, “CARBOXAMIDE-SUBSTITUTED PYRAZOLES AND TRI(HETERO)ARYL-PYRAZOLES FOR USE IN METHODS OF TREATING AND / OR PREVENTING CARDIOVASCULAR DISEASES AND / OR COMORBIDITIES THEREOF” (AiCuris Anti-infective Cures GmbH, priority 2016, dated 2018)
